From patent EP4759817A1, “HETEROARYL COMPOUND, PREPARATION METHOD THEREFOR, AND USE THEREOF IN MEDICINE” (Jiangsu Hengrui Pharmaceuticals Co., Ltd., priority 2023, dated 2025)

What was measured:
HCT116 MTAP-/- cells = experiment: HCT116 MTAP-/- cell proliferation assay (CellTiter-Glo, 10 days); type: cell-based; settings: growth inhibition, CTG assay Day 10
Text: (§1) • I. Experimental materials and instruments • 1. HCT116 cell line (Nanjing Kebai Biotechnology Co., Ltd., CBP60028) • 2. HCT116 MTAP-/- cell line (Nanjing Kebai Biotechnology Co., Ltd., CBP75002) • 3. DMSO (Sigma, D2650) • 4. McCoy's 5A medium (Gibco, 16600-082) • 5. Foetal bovine serum (FBS) (Gibco, 10091148) • 6. Phosphate buffered saline (DPBS) pH 7.4 (Gibco, 14190-144) • 7. Pen strep (PS) (Gibco, 15140-122) • 8. 0.25% Typsin-EDTA (1×) (Gibco, 25200-072) • 9. CellTiter-Glo® Luminescent Cell Viability Assay (Promega, G7572) • 10. 96-well round-bottom plate (JET, TCP002096) • 11. 96-well black clear bottom plate (Hangzhou Xinyou Biotechnology Co., Ltd., 060096) • 12. 1.2 mL 96-well deep well plate, clear, sterile, square-well, V-bottom (Titan, 02089063) • 13. 15-mL centrifuge tube (Titan) • 14. Biosafety cabinet (Thermo, 1300AII) • 15. Cell counter (Countstar, IC1000) • 16. Incubator (Thermo, I160) • 17. Centrifuge (Beckman coulter, Allegra X-12 centrifuge) • 18. PHERAstar FS microplate reader (BMG Labtech) • II. Experimental procedure • 1. Cell plating (Day 0) • a) The cell morphology was observed under a microscope to ensure confluence reached approximately 90%. • b) The cell supernatant was aspirated, the cells were washed once with PBS, and then the PBS was removed; and the cells were digested by adding an appropriate amount of trypsin, and left to stand at 37°C for 3 minutes. • c) The digestion was terminated by adding an equal volume of McCoy's 5A medium containing 10% FBS, and the cell suspension was collected and centrifuged at 300 g for 3 minutes; and the cells were resuspended in an appropriate amount of fresh medium. • d) The resuspended cell suspension was taken for counting. • e) The cell suspension was diluted to 1e4/mL using McCoy's 5A medium containing 10% FBS, and seeded at 50 µL per well, corresponding to 500 cells/well for HCT116 and 500 cells/well for HCT116 MTAP-/-. • f) The cell plate was placed in a 37°C, 5% carbon dioxide incubator and incubated overnight. • 2. Compound treatment (Day 1) • a) Each compound was serially diluted in DMSO to generate a 9-point concentration gradient (starting concentration: 10000 µM, 3-fold dilution; the highest concentration may be adjusted individually based on IC50 of different compounds); for example, in a 96-well round-bottom compound-dilution plate, 5 µL of the compound was sequentially diluted into 10 µL of DMSO. • b) Each concentration point of every compound was then diluted 250-fold into the corresponding volume of McCoy's 5A medium. • c) To each cell plate, 50 µL of the diluted compound solution as described above was added sequentially to the cell supernatant (50 µL/well). • d) The compound-treated cell plate was placed in a 37°C, 5% carbon dioxide incubator and incubated. • 3. Re-digestion, re-plating and compound treatment (Day 5) • a) After 5 days of compound treatment, the compound-containing medium was aspirated, and the cells were rinsed once with PBS (100 µL/well); and the PBS was removed immediately. • b) The cells were digested by adding 25 µL of trypsin and incubated at 37°C for 3 minutes, and then the digestion was terminated by adding 175 µL/well of McCoy's 5A medium containing 10% FBS. • c) The cells were mixed thoroughly using a pipette, and re-plated at 1 : 20; and specifically, 10 µL of the cell suspension was aspirated to a new 96-well plate (pre-filled with 40 µL of McCoy's 5A medium containing 10% FBS. • d) Compounds were prepared and added according to steps a) to c) in Section 2, with 50 µL added per well. • e) The compound-treated cell plate was placed in a 37°C, 5% carbon dioxide incubator and incubated. • 4. […]

HCT116 cells = experiment: HCT116 cell proliferation assay (CellTiter-Glo, 10 days); type: cell-based; settings: growth inhibition, CTG assay Day 10
Text: as §1, with “3.” for “3. Re-digestion, re-plating and compound treatment (Day 5) • a) After 5 days of compound treatment, the compound-containing medium was aspirated, and the cells were rinsed once with PBS (100 µL/well); and the PBS was removed immediately. • b) The cells were digested by adding 25 µL of trypsin and incubated at 37°C for 3 minutes, and then the digestion was terminated by adding 175 µL/well of McCoy's 5A medium containing 10% FBS. • c) The cells were mixed thoroughly using a pipette, and re-plated at 1 : 20; and specifically, 10 µL of the cell suspension was aspirated to a new 96-well plate (pre-filled with 40 µL of McCoy's 5A medium containing 10% FBS. • d) Compounds were prepared and added according to steps a) to c) in Section 2, with 50 µL added per well. • e) The compound-treated cell plate was placed in a 37°C, 5% carbon dioxide incubator and incubated. • 4.”

[1] = target: T1, Recombinant human PRMT5: MEP50 protein (Homo sapiens, UniProt O14744); experiment: Inhibitory activity against human PRMT5 enzymatic activity (HTRF quantification of SAH, +MTA); type: biochemical; settings: +1 µM MTA; histone H4 peptide substrate (1-21), SAM; 37°C 120 min
T1 construct: purchased active motif 31521
Protocol: • 1. Recombinant human PRMT5: MEP50 protein (active motif, 31521) • 2. EPIgeneous Methyltransferase kit (cisbio, 62SAHPEH) • 3. 96-well plate (Sangon Biotech, F610960-0010) • 4. 384-well white plate (Perkin Elmer, 6007290) • 5. 1 M Tris-HCl [pH 8.5] (Sangon Biotech, B548141) • 6. Histone H4 peptide substrates (1-21) (BPS bioscience, 52014) • 7. 5'-deoxy-5'-(methylthio)adenosine (Aladdin, D168979-25 mg) • 8. Tween-20 (Sangon Biotech, A100777-0500) • 9. DMSO (Sigma, D2650) • 10. Incubator (Shanghai Boxun Medical Biological Instrument Corp.) • 11. PHERAstar FS microplate reader (BMG Labtech)
PRMT5 can induce the transfer of a methyl group from S-adenosylmethionine (SAM) to a histone H4 peptide substrate (1-21), generating S-adenosylhomocysteine (SAH). In this experiment, the amount of SAH produced in the reaction is quantified using a Homogeneous Time-Resolved Fluorescence (HTRF) method to evaluate the inhibitory activity of compounds against PRMT5 enzymatic activity.
The sample diluent containing (or not containing) 1 µM 5 '-deoxy-5' - (methylthiyl) adenosine (MTA) was prepared using the EPIgeneous Diluent Buffer from the EPIgeneous Methyltransferase kit. With reference to the instructions, SAM and SAH standards were serially diluted and dispensed at 10 µL per well (in duplicate for each concentration). 2 µL of EPIgeneous Detection Buffer 1 was added to each well, and the plate was centrifuged, shaken to mix thoroughly, and placed at room temperature for 10 min. The SAH d2 Reagent was diluted 32-fold with EPIgeneous Detection Buffer 2, and 4 µL of the diluted SAH-d2 solution was added to each well. The plate was centrifuged and shaken for 2 min to mix thoroughly. The SAH Tb Cryptate Antibody was diluted 50-fold in EPIgeneous Detection Buffer 2. 4 µL of the diluted Tb Cryptate Antibody solution was added to each well, and the plate was centrifuged, shaken for 2 min to mix thoroughly, and left to stand at room temperature for 60 min, followed by reading on a PHERAstar FS microplate reader to obtain the 665/620 ratio. Plotting SAH concentration against the ratio to generate an x-y curve yields a corresponding calculation formula.
Reaction buffer (1×): 50 mM Tris-HCl [pH 8.5], 1 mM DTT, 0.005% Tween-20.
Compound preparation: a 20 mM solution of test compound in 100% DMSO was diluted in 100% DMSO to 1 mM as the highest concentration, and the solution at this concentration was then subjected to a 10-point, 3-fold serial dilution in 100% DMSO in a 96-well plate. Wells containing 100% DMSO served as the blank control. The above-described serially diluted compounds and the 100% DMSO were diluted 20-fold with the reaction buffer to prepare 5× compound solutions, which were mixed thoroughly for use.
The PRMT5:MEP50 was diluted in the reaction buffer to a final concentration of 12.5 nM. Then, 4 µL of the 12.5 nM PRMT5:MEP50 solution was added to each well of a 384-well plate. Wells containing 4 µL of the reaction buffer served as the negative control wells. 2 µL of the 5× compound solution was added to each well. For the negative control wells (no enzyme, no compound) and the positive control wells (no compound), 2 µL of 5% DMSO was added. The plate was sealed with a membrane, centrifuged, shaken for 2 min to mix thoroughly, and placed at room temperature for 20 min.
Preparation of substrate mixture solution: The substrate mixture solution containing 1.5 µM histone H4 peptide substrate (1-21) and 2.5 µM SAM, or 1.5 µM histone H4 peptide substrate (1-21), 2.5 µM SAM and 2.5 µM MTA was prepared in the reaction buffer.
The reaction was initiated by adding 4 µL of the substrate mixture solution (-/+ MTA) to each well. The plate was sealed with a membrane, centrifuged, shaken for 2 min to mix thoroughly, and incubated at 37°C for 120 min in a constant temperature incubator.
Detection: The detection was performed by using the EPIgeneous Methyltransferase kit. […]

T1 sequence (O14744 whole entry): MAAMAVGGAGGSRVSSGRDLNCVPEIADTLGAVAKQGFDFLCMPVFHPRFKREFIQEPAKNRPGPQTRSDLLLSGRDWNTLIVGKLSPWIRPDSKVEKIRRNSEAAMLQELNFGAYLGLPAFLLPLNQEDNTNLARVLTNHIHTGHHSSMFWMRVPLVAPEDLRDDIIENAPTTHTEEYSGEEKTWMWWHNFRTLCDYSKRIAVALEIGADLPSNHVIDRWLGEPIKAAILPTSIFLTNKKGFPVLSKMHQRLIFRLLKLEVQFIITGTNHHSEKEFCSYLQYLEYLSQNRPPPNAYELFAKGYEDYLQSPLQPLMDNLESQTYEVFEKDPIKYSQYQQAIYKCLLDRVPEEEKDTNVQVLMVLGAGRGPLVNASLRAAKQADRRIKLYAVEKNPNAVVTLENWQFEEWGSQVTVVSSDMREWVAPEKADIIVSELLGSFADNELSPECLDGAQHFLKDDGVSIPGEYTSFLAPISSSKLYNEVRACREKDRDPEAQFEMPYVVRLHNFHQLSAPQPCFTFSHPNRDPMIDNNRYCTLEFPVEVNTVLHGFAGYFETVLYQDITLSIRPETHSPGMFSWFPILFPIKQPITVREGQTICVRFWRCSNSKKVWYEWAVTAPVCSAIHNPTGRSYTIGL
T1 sequence (Q9BQA1 whole entry partner): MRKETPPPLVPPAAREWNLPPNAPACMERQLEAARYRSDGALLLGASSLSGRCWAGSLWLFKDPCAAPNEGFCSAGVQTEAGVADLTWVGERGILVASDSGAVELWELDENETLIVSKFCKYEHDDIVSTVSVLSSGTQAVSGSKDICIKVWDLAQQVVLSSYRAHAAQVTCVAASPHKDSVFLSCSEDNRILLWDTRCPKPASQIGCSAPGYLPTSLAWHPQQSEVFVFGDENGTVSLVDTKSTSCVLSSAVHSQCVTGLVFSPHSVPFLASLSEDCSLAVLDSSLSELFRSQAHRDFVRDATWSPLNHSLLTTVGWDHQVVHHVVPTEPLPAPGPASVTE

Cn1ncc(-c2ccc3c(=O)[nH]nc(CN)c3c2)c1-c1c(F)cc2c(c1C#N)O[C@@H]1CC[C@@H]1O2 (atropisomer, axis not shown; (M)) [Compound 1-p2, (M)-(2aR,8aS)-5-(4-(4-(aminomethyl)-1-oxo-1,2-dihydrophthalazin-6-yl)-1-methyl-1H-pyrazol-5-yl)-6-fluoro-1,2,2a,8a-tetrahydrobenzo[b]cyclobuta[e][1,4]dioxine-4-carbonitrile] showed an IC50 (HCT116 MTAP-/- cells) of 0.0133 µM and an IC50 (HCT116 cells) of 2.35 µM.
Molecule [2H]C([2H])([2H])n1ncc(-c2ccc3c(=O)[nH]nc(CN)c3c2)c1-c1c(F)c(Cl)c2c(c1C#N)N1CCC[C@H]1CO2 (atropisomer, axis not shown; (M)) [Compound 13-p1, (M)-(S)-8-(4-(4-(aminomethyl)-1-oxo-1,2-dihydrophthalazin-6-yl)-1-(methyl-d3)-1H-pyrazol-5-yl)-6-chloro-7-fluoro-2,3,3a,4-tetrahydro-1H-benzo[b]pyrrolo[1,2-d][1,4]oxazine-9-carbonitrile] has an IC50 [1] of 2.8 nM and an IC50 (HCT116 MTAP-/- cells; Homo sapiens, HCT-116, 240 h) of 0.015 µM.
Work on [2H]C([2H])([2H])n1ncc(-c2ccc3c(=O)[nH]nc(CN)c3c2)c1-c1c(F)cc2c(c1C#N)O[C@@H]1CC[C@@H]1O2 (single isomer, unassigned) [Compound 2-p2] yielded an IC50 [1] of 7.01 nM, an IC50 (HCT116 MTAP-/- cells; Homo sapiens, HCT-116, 240 h) of 0.0135 µM and an IC50 (HCT116 cells; Homo sapiens, HCT-116, 240 h) of 2.37 µM.
